Experimental findings from ChEMBL document CHEMBL1201862, “PubChem BioAssay data set” (2004) are described below.

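Results reflect a 48-hour exposure of cells in 96-well plates to compound at five concentrations. The concentration for 50% growth inhibition is given as GI50.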 The source made the active and inactive calls. Rule as the data show it: active = GI50 up to about 1.1 µM and inactive = higher. Some results are limits rather than exact numbers.

Among the test systems are A549; ACHN; DU-145; EKVX; HCC 2998; HCT-116; HL-60; HT-29; Hs-578T; IGROV-1; M14; MCF7; MDA-N; NCI-H23; SF-295; SK-OV-3; T47D; UACC-62; SK-MEL-2; SK-MEL-5.
Common to all, as to assay: NCI anticancer screen, dose series, 48 h

Regarding `CCOC(=O)c1c(SC(=O)c2ccc(Cl)cc2)n(-c2ccccc2)c(=S)n(-c2ccccc2)c1=O`, the GI50 with A549, in the test on ACHN, in the test with DU-145, in the test with EKVX, in the test with HCC 2998 and in the test on HCT-116 was > 100 µM (inactive) each time. Moreover, the GI50 in the test on HL-60, with HT-29, in the test on Hs-578T, in the test on IGROV-1, in the test with M14 and in the test on MCF7 was > 100 µM (inactive) throughout. The GI50 in the test with MDA-N, with NCI-H23, with SF-295, in the test on SK-OV-3, with T47D and in the test with UACC-62 was > 100 µM (inactive) in each case.

Take `C[N+](C)(C)/C=N\c1cccc2nsnc12`: the GI50 in the test with A549, in the test with ACHN, in the test with DU-145, in the test with EKVX, in the test on HCT-116 and in the test with HL-60 was > 100 µM (inactive) throughout. In addition, the GI50 in the test on HT-29, in the test on Hs-578T, in the test with IGROV-1, in the test with M14, in the test on MCF7 and in the test with MDA-N was > 100 µM (inactive) each time. The GI50 in the test on NCI-H23, with SF-295, with SK-MEL-2, in the test with SK-MEL-5, in the test with SK-OV-3 and in the test with T47D was > 100 µM (inactive) each time. Besides, in the test on UACC-62, the GI50 was > 100 µM (inactive).

As to `COc1cc(COC(=O)N2CCCCC2C(=O)O)c([N+](=O)[O-])cc1OC` (stereo not given), the GI50 with A549, in the test with ACHN, with DU-145, in the test on EKVX, with HCC 2998 and in the test on HCT-116 was > 100 µM (inactive) throughout. Further, the GI50 with HL-60, in the test with HT-29, with Hs-578T, with IGROV-1, with M14 and with MCF7 was > 100 µM (inactive) in each case. For the same compound, the GI50 in the test with MDA-N, in the test on NCI-H23, in the test on SF-295, in the test on SK-MEL-5, in the test on SK-OV-3 and with T47D was > 100 µM (inactive) in each case. Besides, in the test with UACC-62, the GI50 was > 100 µM (inactive).

On to `COC(=O)/C(C#N)=C(\Nc1ccccc1)N1CCCCC1`, for which the GI50 in the test with A549, with ACHN, in the test on DU-145, in the test with EKVX, in the test with HCC 2998 and with HCT-116 was > 100 µM (inactive) each time. Also, the GI50 with HL-60, with HT-29, in the test with Hs-578T, in the test with IGROV-1, in the test on M14 and in the test on MCF7 was > 100 µM (inactive) in each case. Moreover, the GI50 in the test on MDA-N, in the test on NCI-H23, with SF-295, with SK-MEL-2, with SK-MEL-5 and with SK-OV-3 was > 100 µM (inactive) throughout. Moreover, the GI50 in the test with T47D was > 100 µM (inactive).

`O=c1[nH][nH]c(=O)n1/N=C/c1ccccc1`: the GI50 in the test with A549, in the test with ACHN, with DU-145, with EKVX, in the test on HCT-116 and in the test on HL-60 was > 100 µM (inactive) throughout. For the same compound, the GI50 in the test on HT-29, in the test with Hs-578T, in the test on IGROV-1, in the test with M14, in the test on MCF7 and in the test on MDA-N was > 100 µM (inactive) each time. Also, the GI50 in the test with NCI-H23, in the test on SF-295, in the test with SK-MEL-2, in the test with SK-MEL-5, with SK-OV-3 and in the test on T47D was > 100 µM (inactive) throughout. Besides, the GI50 in the test on UACC-62 is > 100 µM (inactive).

For the compound `CSc1ncc2c(n1)-c1ccccc1OC2N1CCCC1` (stereo not given), the GI50 in the test on A549 was > 100 µM (inactive); with ACHN it was 60.8 µM (inactive); with DU-145, > 100 µM (inactive); in the test with EKVX, 42.1 µM (inactive); in the test with HCT-116, > 100 µM (inactive); in the test on HL-60, 52.7 µM (inactive). Moreover, the GI50 with HT-29 was > 100 µM (inactive); in the test with Hs-578T it was 39.1 µM (inactive); with IGROV-1 it was 47.8 µM (inactive); in the test with M14, > 100 µM (inactive); in the test with MCF7, 71.3 µM (inactive); in the test on MDA-N it was > 100 µM (inactive). The GI50 is > 100 µM (inactive) in the test on NCI-H23; > 100 µM (inactive) with SF-295; > 100 µM (inactive) in the test on SK-MEL-2; > 100 µM (inactive) in the test on SK-MEL-5; > 100 µM (inactive) with SK-OV-3; 35.8 µM (inactive) in the test on T47D. Also, the GI50 in the test with UACC-62 is 26.4 µM (inactive).

In the case of `CC1C2CC(C(S(=O)(=O)O)C2=O)C1(C)C` (stereo not given), the GI50 in the test with ACHN, with DU-145, in the test with EKVX, in the test on HCC 2998, with HCT-116 and in the test with HL-60 was > 100 µM (inactive) throughout. Further, the GI50 with HT-29, in the test on Hs-578T, in the test on IGROV-1, with M14, in the test with MCF7 and with MDA-N was > 100 µM (inactive) each time. Besides, the GI50 with NCI-H23, in the test on SF-295, in the test with SK-OV-3, with T47D and in the test with UACC-62 was > 100 µM (inactive) throughout.

Turning to `C=C[C@H]1CN2CCc3c([nH]c4c([C@H]5CCCN5C)c(O)ccc34)[C@@H]2C[C@@H]1C[C@H]1c2[nH]c3ccccc3c2CCN1C` [STRYCHNOPENTAMINE], the GI50 in the test on A549 was 1.55 µM (inactive); with ACHN it was 1.78 µM (inactive); with DU-145 it was 1.63 µM (inactive); with EKVX, 1.75 µM (inactive); with HCC 2998, 0.388 µM (active); in the test with HCT-116 it was 1.33 µM (inactive). In addition, the GI50 in the test on HL-60 is 0.267 µM (active); in the test with HT-29, 1.3 µM (inactive); in the test with Hs-578T it was 1.78 µM (inactive); with IGROV-1, 1.59 µM (inactive); with M14, 1.47 µM (inactive); in the test with MCF7, 0.776 µM (active). Also, the GI50 in the test with MDA-N was 1.35 µM (inactive); with NCI-H23 it was 1.85 µM (inactive); with SF-295 it was 1.73 µM (inactive); in the test with SK-MEL-2 it was 1.9 µM (inactive); in the test with SK-OV-3, 1.77 µM (inactive); in the test with T47D, 1.8 µM (inactive). Further, the GI50 in the test with UACC-62 was 1.77 µM (inactive).

On to `NCC(O)CSCc1ccc(Cl)cc1` (stereo not given), for which the GI50 in the test with A549, with ACHN, with DU-145, with HCC 2998, in the test with HCT-116 and with HL-60 was > 100 µM (inactive) in each case. In addition, the GI50 in the test on HT-29, in the test on Hs-578T, in the test with IGROV-1, with M14, with MCF7 and in the test with MDA-N was > 100 µM (inactive) throughout. Besides, the GI50 in the test on NCI-H23, with SF-295, in the test with SK-MEL-5, with SK-OV-3, in the test on T47D and in the test with UACC-62 was > 100 µM (inactive) each time.

Turning to `CN1C(=O)NC(=O)/C(=C\Nc2ncccn2)C1=O`, the GI50 in the test with A549, in the test on ACHN, in the test on DU-145, in the test on EKVX, in the test on HCT-116 and with HL-60 was > 100 µM (inactive) each time. Moreover, the GI50 with HT-29, in the test with Hs-578T, in the test with IGROV-1, in the test with M14, with MCF7 and with MDA-N was > 100 µM (inactive) throughout. The GI50 in the test on NCI-H23, in the test with SF-295, in the test on SK-MEL-2, in the test on SK-MEL-5, with SK-OV-3 and in the test on T47D was > 100 µM (inactive) each time. Moreover, in the test on UACC-62, the GI50 is > 100 µM (inactive).

For `O=C(O)CSC1=NC(=O)C2(NN1)c1ccccc1-c1ccccc12`, the GI50 in the test with A549, with ACHN, in the test on DU-145, in the test with EKVX, in the test on HCC 2998 and in the test on HCT-116 was > 10 µM (inactive) throughout. Also, the GI50 with HL-60, in the test on HT-29, in the test on Hs-578T, in the test on IGROV-1, in the test on M14 and in the test on MCF7 was > 10 µM (inactive) in each case. Further, the GI50 in the test on MDA-N, with NCI-H23, in the test with SF-295, in the test on SK-MEL-5, with SK-OV-3 and in the test on T47D was > 10 µM (inactive) each time. Besides, the GI50 in the test with UACC-62 is > 10 µM (inactive).
